Assay: gradient 5% acetonitrile 3 min, to 50% in 2 min, to 85% in 15 min, held 3 min, 100 µL/min
Conditions: column: Zorbax Extend-C18 2.1 x 50 mm; eluents: water / acetonitrile, 0.1% formic acid
Procedure, shortened: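 Pure standards were analyzed in mixtures of ~100 molecules using HPLC coupled to a quadrupole time-of-flight mass spectrometer, in both positive and negative ionization mode. Separation used a Zorbax Extend-C18 column (2.1 × 50 mm, 1.8 μm) at 100 μL/min, with water and acetonitrile each containing 0.1% formic acid. Dead and dwell volumes were 40 μL and 900 μL, and data were collected over 3 months. Retention time was read from computationally picked adduct peaks, each inspected manually.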

Row | RP-LC retention time | Compound
1 | 787 s | CC(C)n1c(-c2cccc(C(=O)NCc3cccs3)c2)nc2cccnc21
2 | 1020 s | CC(C)c1ccc(S(=O)(=O)c2cnc(N3CCC4(CC3)OCCO4)nc2N)cc1
3 | 888 s | CCN1c2cc(Cl)ccc2C(=O)NC12CCN(C(=O)NCc1ccc(C)cc1)CC2
4 | 1070 s | Cc1ccc(C)c(-c2csc(Nc3ccc(S(=O)(=O)Nc4cc(C)on4)cc3)n2)c1
5 | 845 s | Cc1cccc(NC(=O)C2CCCN(c3ncnc4c3oc3ccccc34)C2)c1 (centres undefined)
6 | 631 s | CCS(=O)(=O)N1CCC(Cc2nncn2-c2ccccc2)C1 (centres undefined)
7 | 656 s | CCOC(=O)C1=C(CN2CCN(C3CCCCC3)CC2)NC(=O)NC1c1ccc(OC)cc1 (centres undefined)
8 | 742 s | CCn1ccc2c(cc(C(=O)Nc3ccccc3C(F)(F)F)n2C)c1=O
9 | 573 s | CN1CCc2nnc(C3CCN(C(=O)Nc4ccc(Cl)cc4F)C3)n2CC1 (centres undefined)
10 | 827 s | COc1cc(NC(=O)Cc2ccc(S(=O)(=O)C(C)C)cc2)c2ncccc2c1
11 | 831 s | COC(=O)c1cccc(N2C=C(C(=O)N3CCCC3)S(=O)(=O)c3ccc(Cl)cc32)c1
12 | 935 s | COc1ccc(OC)c(CNS(=O)(=O)c2cc(-c3cnn4c(C)cc(C)nc34)ccc2OC)c1
13 | 788 s | O=[N+]([O-])c1ccccc1CSc1nnc2sc3ccccc3n12
14 | 809 s | CCc1ccc(C(=O)N2CCC(n3c(-c4ccoc4)nc4cccnc43)C2)cc1 (centres undefined)
15 | 1120 s | COC1CN(c2cccc(F)c2)C12CCN(C(=O)C1(c3ccccc3)CC1)CC2 (centres undefined)
16 | 632 s | Cc1cccc(C)c1NC(=O)Cn1nc2n(c1=O)CCCC2
17 | 1130 s | Cc1[nH]nc(-c2c(C)sc(C)c2S(=O)(=O)NCCc2ccc(Cl)cc2)c1C
18 | 619 s | CNC(=O)[C@@H]1CN(C(=O)c2noc(C)c2COC)C[C@H]1c1nc(C)no1
19 | 659 s | COc1ccc(Cl)cc1NC(=O)N1CCN(c2cc(C)nc(N3CCOCC3)n2)CC1
20 | 687 s | O=C1CCCN1CCCN1C(=O)[C@H]2CN(Cc3ccccc3OC(F)(F)F)C[C@H]2C1=O
21 | 908 s | CC(NC(=O)c1ccc(-c2ccsc2)nc1)c1ccc(F)cc1 (centres undefined)
22 | 784 s | COc1cc(Cl)c(NS(=O)(=O)c2cc(-c3c(C)noc3NC(C)=O)ccc2OC)c(OC)c1

Row | RP-LC retention time | Compound
23 | 915 s | Clc1ccccc1C1Cn2cnc(-c3nc(-c4ccncc4)no3)c2CO1 (centres undefined)
24 | 804 s | Cc1ccn2c(NC(=O)COc3ccc(Cl)cc3Cl)c(-c3ccc(F)cc3)nc2c1
25 | 722 s | CCCCNC(=O)C1CCN(C(=O)c2ncn3c2COC(c2ccc(F)cc2)C3)CC1 (centres undefined)
26 | 774 s | O=C(Nc1ccccc1)C1CCCN(c2ncnc3c2nc2n3CCCCC2)C1 (centres undefined)
27 | 702 s | CCn1c(=O)sc2cc(S(=O)(=O)N3CCC(C(=O)Nc4cc(C)ccn4)CC3)ccc21
28 | 790 s | Cc1cccc(C2=NC3(CCN(C(=O)Nc4ccc5c(c4)OCO5)CC3)NC2=O)c1
29 | 683 s | Cc1ccc(S(=O)(=O)N2CCC(CN3CCCC(C)C3)CC2)cc1Cl (centres undefined)
30 | 1090 s | Cc1cccc(NC(=O)C2CCN(S(C)(=O)=O)c3cc(Cl)ccc3O2)c1C (centres undefined)
31 | 764 s | CC1=C(c2ccc(F)cc2)S(=O)(=O)N=C1N1CCCN(C(=O)c2ccco2)CC1
32 | 895 s | COc1ccc(NC(=O)c2noc3c2CC(C)CC3)cc1OC (centres undefined)
33 | 934 s | COC(=O)c1ccc(NC(=O)Cn2cccc(-c3nc(-c4ccc(Cl)cc4)no3)c2=O)cc1
34 | 630 s | COc1ccc(Cl)c2c(=O)c3c([nH]c12)CCN(CC(=O)NCc1ccc(C)cc1)C3
35 | 906 s | COc1ccc(SCCCC(=O)Nc2cccc(C)c2C)cc1
36 | 700 s | CC(=O)Nc1nc(-c2ccc3c(c2)N(C)C(=O)CO3)cs1
37 | 665 s | Cc1ccccc1/C=C/C1=NCCN1
38 | 586 s | COc1ccc(-c2cc3nc(C)cc(Nc4ccc(C(N)=O)cc4)n3n2)cc1OC
39 | 685 s | COc1c(C(=O)N2CCN(C3CCCCC3)CC2)sc2ccc(F)cc12
40 | 979 s | COc1ccc(CC(=O)N2CCc3cc(-c4noc(C)n4)ccc32)cc1Cl
41 | 563 s | Cn1cnc2c1CN(C(=O)c1ccc(Br)o1)CC2
42 | 811 s | Cn1cc(-c2ccc(F)cc2)cc1C(=O)N1CCOCC1
43 | 657 s | CCCn1ccc2sc(C)c(C(=O)NCCN3CCCCCC3)c2c1=O
44 | 636 s | CCOc1ccc(-n2c(CN3CCN(C(=O)NC4CCCC4)CC3)nc3cccnc32)cc1

Row | RP-LC retention time | Compound
45 | 821 s | CCOC(=O)c1[nH]c(C)c(CCC(=O)NC(C)c2ccc3c(c2)OCCO3)c1C (centres undefined)
46 | 995 s | CCCCCc1c(C)nn(-c2nc(CC(=O)Nc3nc4ccccc4[nH]3)cs2)c1C
47 | 828 s | CCC(=O)N1CCc2c([nH]c3ccccc23)C12C(=O)N(C)c1ccccc12 (centres undefined)
48 | 875 s | Cn1ncc2c3ccccc3n(CC(=O)N3CCN(c4ccc(F)cc4)CC3)c2c1=O
49 | 750 s | O=C(Nc1ccc(N2CCN(Cc3ccc(F)cc3)C2=O)nc1)C1CCC1
50 | 945 s | CCOc1ccc(NC(=O)CN2C(=O)C3CCCCN3c3ccc(S(=O)(=O)N(C)C)cc32)cc1 (centres undefined)
51 | 1030 s | COc1ccc(NC(=O)Cn2cnc3c(sc4nc(-c5ccccc5)ccc43)c2=O)cc1Cl
52 | 824 s | CCS(=O)(=O)N1CC(F)(F)C[C@H]1c1nnc(-c2ccccc2)o1
53 | 678 s | Cc1ccccc1NS(=O)(=O)c1cc(-c2[nH]ncc2C(=O)N2CCOCC2)oc1C
54 | 849 s | CCOC(=O)c1ccc(Nc2c(-c3ccccc3)nc3cnccn23)cc1
55 | 678 s | O=C(Cn1c(CN2CCCCCC2)nc2ccccc21)N1CCCCCC1
56 | 683 s | Cc1cccc(NS(=O)(=O)c2cc(-c3[nH]ncc3C(=O)N3CCOCC3)oc2C)c1
57 | 657 s | COc1ccc(NC(=O)NCC2CCOCC2)c(C)c1
58 | 636 s | COCc1nc(C2CCN(C(=O)NCC(C)C)C2)no1 (centres undefined)
59 | 964 s | O=C(Cn1cccc(-c2nc(-c3ccc(F)cc3)no2)c1=O)Nc1ccc(Br)cc1F
60 | 904 s | COC(=O)N1CCN(c2ccc(-c3noc(C(F)(F)F)n3)cn2)CC1
61 | 1130 s | Cc1ccc(/C=C/c2nc(-c3ccc4oc(C)nc4c3)no2)o1
62 | 650 s | Cc1cc(-c2csc(S(=O)(=O)NCCCN3CCN(Cc4ccccc4)CC3)c2)on1
63 | 718 s | Cc1cc2c(cc1S(=O)(=O)N1CCCC1C(=O)NC1CCCC1)OCC(=O)N2 (centres undefined)
64 | 1020 s | COc1cccc(-c2noc(C3CC(=O)N(c4cc(C)cc(C)c4)C3)n2)c1OC (centres undefined)
65 | 982 s | O=C(c1cccn1Cc1noc(C2CC2)n1)N1CCc2ccccc21
66 | 748 s | COc1ccc(-c2nnc(-c3ccc(C)c(S(=O)(=O)N(C)CC(=O)O)c3)o2)cc1OC

Row | RP-LC retention time | Compound
67 | 798 s | COc1ccccc1N1CCN(Cc2nc(-c3ccccc3)no2)CC1
68 | 570 s | Cc1noc(C)c1CN1CCN(C(=O)CSc2ccc(F)cc2)CC1
69 | 807 s | COc1cccc(OCC2c3ccsc3CCN2C(=O)CN(C(C)=O)C2CC2)c1 (centres undefined)
70 | 1020 s | O=C1C2N=NN(Cc3nc(-c4ccccc4Cl)no3)C2C(=O)N1c1ccc2c(c1)OCO2 (centres undefined)
71 | 618 s | COCc1c(C(=O)N2CCC3(CCC3O)CC2)noc1C (centres undefined)
72 | 660 s | CCN(CC)CCNc1ncnc2onc(-c3cccc(Cl)c3)c12
73 | 1110 s | Cc1ccc(S(=O)(=O)c2cnc(N3CCN(c4ccccc4)CC3)nc2N)cc1C
74 | 1250 s | CCCCn1c(=O)c2ccccc2n(Cc2nc(-c3ccc(SC)cc3)no2)c1=O
75 | 946 s | Cc1c(C(=O)OCC(=O)Nc2cccc(Cl)c2)nnn1-c1ccccc1
76 | 790 s | COCCN1CCC2(CC1)CN(Cc1ccc(F)cc1Cl)Cc1ccccc1O2
77 | 687 s | Cc1cn(C)c(CC(=O)NCc2ccc3c(c2)OCO3)c1C(=O)O
78 | 836 s | COc1cc(NC(=O)Cn2nc(N(C)C)c3ccccc3c2=O)cc(OC)c1
79 | 797 s | CC(C)NC(=O)c1ccc(OCC2CCN(C(=O)c3ccsc3)CC2)cc1
80 | 761 s | CCNc1nc(-c2ccccc2F)no1
81 | 806 s | COc1ccc(OC)c(CNC(=O)c2ccc3c(c2)NC(=O)C2CCCCN32)c1 (centres undefined)
82 | 1040 s | Cc1nc(CSc2ncnc3sc4c(c23)CCC4)cs1
83 | 628 s | CCN1CCCn2nc(C3CCN(C(=O)c4ccc5c(c4)OCO5)CC3)cc2C1=O
84 | 904 s | CCCNC(=O)Cc1csc(-n2nc(C)c(Cl)c2C)n1
85 | 982 s | Cc1ccc(CNC(=O)C2(C)Oc3cccnc3N(C(C)C)C2=O)cc1 (centres undefined)
86 | 800 s | O=C(Nc1cnc(N2CCCCC2)nc1)c1ccsc1

Row | Compound | RP-LC retention time
87 | CN1[C@@H]2CC[C@H]1CC(OC(=O)C1C=Nc3ccccc31)C2 (some centres undefined) | 656 s
88 | COc1cc(N)c(Cl)cc1C(=O)NC1CN2CCC1CC2 (centres undefined) | 615 s
89 | CN1Cc2ccccc2-n2ccnc2C12CCN(C(=O)c1cccc(C(F)(F)F)c1)CC2 | 594 s

Reference: the METLIN SMRT retention time set (Domingo-Almenara et al. 2019)
